In assay [1] the target is T1, Calpain-1 catalytic subunit (Homo sapiens, UniProt P07384).
T1 sequence (P07384 whole entry): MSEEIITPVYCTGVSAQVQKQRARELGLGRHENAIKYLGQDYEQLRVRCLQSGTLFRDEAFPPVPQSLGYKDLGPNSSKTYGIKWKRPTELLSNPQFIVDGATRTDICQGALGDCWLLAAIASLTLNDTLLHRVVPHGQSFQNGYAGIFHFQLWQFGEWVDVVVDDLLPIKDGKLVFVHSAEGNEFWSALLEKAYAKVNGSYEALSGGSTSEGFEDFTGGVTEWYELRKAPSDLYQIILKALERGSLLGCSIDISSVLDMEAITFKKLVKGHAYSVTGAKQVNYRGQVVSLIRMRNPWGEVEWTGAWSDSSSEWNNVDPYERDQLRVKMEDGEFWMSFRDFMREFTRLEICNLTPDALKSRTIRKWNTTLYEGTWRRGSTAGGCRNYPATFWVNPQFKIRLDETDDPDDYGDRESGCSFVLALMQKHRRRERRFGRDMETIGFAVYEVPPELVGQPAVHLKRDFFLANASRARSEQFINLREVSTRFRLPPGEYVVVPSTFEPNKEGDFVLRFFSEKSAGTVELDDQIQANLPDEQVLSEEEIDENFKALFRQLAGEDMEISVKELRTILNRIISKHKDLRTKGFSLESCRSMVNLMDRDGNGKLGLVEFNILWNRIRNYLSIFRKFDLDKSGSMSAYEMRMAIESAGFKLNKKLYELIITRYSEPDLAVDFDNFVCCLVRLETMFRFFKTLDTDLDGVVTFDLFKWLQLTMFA
The experiment in a line: (§1) Inhibitory activity towards human calpain I.

A further assay has as its target MOLT-4. Briefly: Inhibitory concentration against MOLT-4 cells (human T-cell leukemia cell line).
Assay [2] concerns the target T1, Calpain-1 catalytic subunit. The experiment in a line: Inhibitory activity against calpain-I.
Assay [3] shares this target. The assay is described as §1. The source holds these as a separate data set.
For assay [4] the target is unchanged. The experiment in a line: Compound was evaluated for inhibitory activity towards human calpain I isomer 1.

In the case of `CN1C(C(=O)N[C@H](C=O)Cc2ccccc2)Cc2cc(N3CCOCC3)ccc2S1(=O)=O` (stereo partly specified), the results for the half-inhibitory concentration (IC50) (in assay [1]; against MOLT-4) were 0.5 µM and 4.1 µM, respectively.
For `CN1C(C(=O)N[C@H](C=O)Cc2ccccc2)Cc2cc(Cl)ccc2S1(=O)=O` (stereo partly specified), inhibition against MOLT-4 was half-maximal at 2.2 µM (IC50).
`CS(=O)(=O)NC(COCc1ccccc1)C(=O)N[C@H](C=O)Cc1ccccc1` (stereo partly specified) gave an IC50 in assay [2] of 0.011 µM. In other words, the double-digit nanomolar range.
As to `COC1=C(C(=O)N[C@H](C=O)Cc2ccccc2)N(C)S(=O)(=O)c2ccccc21`, the IC50 against MOLT-4 turned out to be 3.2 µM.
For `CC(C)CN1C(C(=O)N[C@H](C=O)Cc2ccccc2)Cc2cc(Cl)ccc2S1(=O)=O` (stereo partly specified), the IC50 in assay [1] and in assay [3] was 0.2 µM each time.
In assay [4], `O=C[C@H](Cc1ccccc1)NC(=O)C1Cc2ccccc2C(=O)N1` (stereo partly specified) yielded an IC50 of roughly 5 µM.
For the compound `COc1cc2c(cc1OC)S(=O)(=O)NC(C(=O)N[C@H](C=O)Cc1ccccc1)C2` (stereo partly specified), the IC50 in assay [1] stood at 0.8 µM; in assay [3], 0.7 µM.
Take `CN1C(C(=O)N[C@H](C=O)Cc2ccccc2)=Cc2cc3c(cc2S1(=O)=O)OCCO3`: on MOLT-4, the half-maximal inhibitory concentration (IC50) stood at 0.9 µM.
Turning to `CN1C(=O)c2ccccc2CC1C(=O)N[C@H](C=O)Cc1ccccc1` (stereo partly specified), the values for the half-inhibitory concentration (IC50) in assay [1] and in assay [4] were roughly 1 µM and 0.085 µM, respectively.
`COc1cc2c(cc1OC)S(=O)(=O)N(Cc1ccccc1)C(C(=O)N[C@H](C=O)Cc1ccccc1)C2` (stereo partly specified): the IC50 in assay [1] is 1 µM. That is a single-digit micromolar value.
`COc1cc2c(cc1OC)S(=O)(=O)N(C)C(C(=O)N[C@H](C=O)Cc1ccccc1)C2` (stereo partly specified) came in with a 50% inhibitory concentration (IC50) against MOLT-4 of 1.9 µM.
Still for that read-out and setting: as for `CN1C(C(=O)N[C@H](C=O)CCCCNS(=O)(=O)c2ccccc2)Cc2cc3c(cc2S1(=O)=O)OCCO3` (stereo partly specified), the figure is 1.8 µM.
The same measure, in the same setting: as for `CN1C(C(=O)N[C@H](C=O)Cc2ccccc2)Cc2ccccc2S1(=O)=O` (stereo partly specified), the figure is 1.7 µM.
`O=C[C@H](Cc1ccccc1)NC(=O)C(Cc1ccccc1)NS(=O)(=O)c1ccccc1` (stereo partly specified): the midpoint of inhibition in assay [2], the IC50, lay at 0.02 µM.
Turning to `CC(C)N1C(C(=O)N[C@H](C=O)Cc2ccccc2)Cc2cc3c(cc2S1(=O)=O)OCCO3` (mixture of isomers), the IC50 at MOLT-4 came to 2.6 µM.
On MOLT-4, `CN1C(C(=O)N[C@H](C=O)Cc2ccccc2)Cc2cc3c(cc2S1(=O)=O)OCCO3` (mixture of isomers) displayed a 50% inhibitory concentration (IC50) of 2 µM.
Same read-out and setting: as for `COc1cc2c(cc1OC)S(=O)(=O)OC(C(=O)N[C@H](C=O)Cc1ccccc1)C2` (mixture of isomers), the figure is 2.2 µM.

The term IC50 denotes the midpoint of a concentration-inhibition curve. Low values mean greater potency, high ones weaker potency.
